System: N-kinase
Test: in-gel kinase method (histone HF-1 substrate, [32P]-ATP)
Format: biochemical
Conditions: in-gel kinase assay, [32P]-ATP plus Mn2+, with or without 6-TG present; bovine brain fractions
Description: During the purification process, kinase activity was monitored using an in-gel kinase method. In this method, a histone HF-1 substrate protein is polymerized into a 10% polyacrylamide gel before the samples to be analyzed are electrophoresed in the gel. Following completion of the electrophoresis, proteins are partially renatured with guanidium isothiocyanate and incubated in the presence [^32P]-ATP plus Mn^2+, with or without 6-TG present. (Activation by Mn^2+, but not by Mg^2+ or Ca^2+, is a distinctive property of N-kinase). The purification of the kinase was monitored by looking for a 6-TG-inhibitable radioactive band corresponding to the site where the kinase phosphorylates the HF-1 substrate in the gel.

## Nc1nc2nc[nH]c2c(=S)[nH]1 [6-TG, 6-thioguanine]
  inhibition of N-kinase HF-1-phosphorylating activity: inhibitable
